Experimental data taken from PubChem BioAssay AID652041 (Broad Institute, 2013).
The source made the active and inactive calls.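 The calls were made as follows: active = fitted curve reaching a 35% signal drop at a concentration under 10 µM, within twice the top tested dose; inconclusive = no clear call, values can overlap the other calls; inactive = the rest, including activity opposite to the expected direction.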

Tested on: not listed separately
Assay: growth inhibition of P. falciparum HB3, dose response, HB3 strain, red blood cells, SYBR Green, cherry-picked (AID 652041);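 also: parasites exposed to compound for 72 hours before the DNA read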
Conditions: P. falciparum HB3 in RBCs, SYBR Green DNA fluorescence; at 50 µM (top of the series)

Structure (SMILES)	activity change, negative = inhibition
CCOC(=O)c1ccc(N2C(=O)CC(N3CCC(O)(c4ccc(Cl)cc4)CC3)C2=O)cc1 (stereo unspecified)	-5.74% (inactive)
COC(OC)c1ccc(C#N)c(SCc2ccccc2)n1	-17.5% (inactive)
CCCn1c2ccccc2c2cc(C(=O)O)ccc21	-6.37% (inactive)
CC1CCN(c2ccc3c(c2)S(=O)(=O)c2ccccc2C3=O)CC1	-1.13% (inactive)
CC1=NN(C(N)=S)C(=O)C1N=Nc1cccc(Cl)c1C (stereo unspecified)	-12.3% (inactive)
COc1ccc(N(C(=O)c2ccncc2)S(=O)(=O)c2ccccc2)cc1	-28% (inactive)
Cc1nc2ccc(C(=O)NCc3ccc4c(c3)OCO4)cc2s1	-24.7% (inactive)
Cc1cc(NS(=O)(=O)c2ccc(C3CCCCC3)cc2)no1	0.534% (inactive)
CCCSC(=S)c1c(C)[nH]n(-c2ccccc2)c1=O	-14.2% (inactive)
CC(C)CSc1n[nH]c(=S)s1	1.38% (inactive)
COc1cc2c(c(OC)c1OC)-c1ccc(O)c(=O)cc1[C@@H](NC(C)=O)CC2	-18.5% (inactive)
CC1(C)CC(=O)C(N=Nc2ccc3ncsc3c2)=C(O)C1	-23.1% (inactive)
c1ccc(-c2ccc(OCCCn3cncn3)cc2)cc1	-10.3% (inactive)
CC(C)NC(=O)NC(=O)COC(=O)c1ccc([N+](=O)[O-])cc1Cl	-11.6% (inactive)
Clc1ccc(-c2n[nH]c3c2CCC3)cc1Cl	-19.3% (inactive)
CCn1c(CNc2ccc(Cl)cc2)nnc1SCc1ccccc1	-25.3% (inactive)
Cc1cccc(C)c1N1C(=O)C2ON(c3ccccc3)C(c3ccncc3)C2C1=O (stereo unspecified)	-11.3% (inactive)
COc1cccc(C(C)=C2SC(=S)NC2=O)c1	-7.61% (inactive)
COc1ccc(N(C(=O)c2ccncc2)S(=O)(=O)c2ccc(F)cc2)cc1	-13.3% (inactive)
O=C(O)c1c(NC(=O)N2CCCC2)sc2c1CCCC2	-0.929% (inactive)
Nc1nc2sc3c(c2c(=O)s1)CCCC3	-20.8% (inactive)
CCCOc1ccc(S(=O)(=O)n2cc(F)c(=O)[nH]c2=O)cc1	-21.3% (inactive)
CCCOc1ccc2ccccc2c1/C=C1\SC(=O)NC1=O	-14.8% (inactive)
c1ccc(Cn2cc(-c3cccnc3)cn2)cc1	-23.9% (inactive)
CC1Oc2ccccc2C=C1/C=N/Nc1ccc(C(=O)O)cc1 (stereo unspecified)	-20.4% (inactive)
Oc1c(Br)cc(-c2ccccc2)cc1Br	-16% (inactive)
CC12CCC(O)CC1=CCC1C2CCC2(C)C3=NN=CC3CC12 (stereo unspecified)	-17.5% (inactive)
O=C1N(c2ccc(Cl)cc2)C(c2cccnc2)N2CCCN12 (stereo unspecified)	-10.4% (inactive)
CCCCn1c(=O)c(C(=O)NCc2ccncc2)c(O)c2ccccc21	-14% (inactive)
CCOc1ccc(N/N=C(/C#N)C(N)=O)cc1	-12.5% (inactive)

Tested on: P. falciparum HB3 in RBCs, SYBR Green DNA fluorescence
Assay: as above
Conditions: not given

Structure (SMILES)	AC35 [µM]
CCCCCCn1c(=O)c(C(=O)Nc2ncccc2C)c(O)c2ccccc21	4.29
COc1ccc2[nH]c(=O)c(CN(Cc3cccnc3)C(=O)Nc3ccccc3)cc2c1	15.7
C=C(C)COc1ccc(-c2[nH]ncc2-c2ccc(Br)cc2)c(O)c1	2.25
O=C(NC(=S)N(CCc1ccccc1)CCc1ccccc1)c1ccco1	13.3
COC(=O)c1cccc2c1-c1ccccc1/C2=N/O	16.5
COc1cccc(/C=N/Nc2ncnc(Cl)c2N)c1O	0.942
Oc1ccc(Br)cc1/C=N/Nc1ccccn1	1.61
CC(=O)Oc1ccc(OC(C)=O)c(SCCCCCCl)c1	2.56
O=C(Nc1nc(-c2ccccn2)cs1)c1ccc(Br)s1	0.662
O=[N+]([O-])c1cccc(C=NNc2ccc3ccccc3n2)c1O	6.73
Nc1nc(-c2ccccc2)c(-c2ccc([N+](=O)[O-])cc2)s1	39.6
COc1ccc(C(=O)On2c(-c3ccc(Br)cc3)nc3ccccc3c2=O)cc1	9.45
Cc1cccc(Nc2nc(-c3ccc(O)cc3O)cs2)n1	18.6
Cc1cccc(Oc2nc(-c3ccccn3)nc3ccccc23)c1	6.06
Cc1ccc(-c2c3c(nc4sc(C(N)=O)c(N)c24)CCCC3)o1	37.6
COc1cc([N+](=O)[O-])cc(/C=N/NC(=O)c2cncc(Br)c2)c1O	16.8
CCN(CC)c1ccc(/C=N/NC(=O)c2c(Cl)cnn2C)c(O)c1	2.66
CCCCNc1c(-c2cccc(Sc3ccc(OC)cc3)c2)nc2ccccn12	8.77
CC(=O)Nc1cccc(NC(=O)CSc2ccc(-c3ccccn3)nn2)c1	17
CNc1cc(CSC)nc(SCc2ccc(Cl)cc2Cl)n1	22.3
C=CCn1c(-c2cc(-c3ccc(C)cc3)nc3ccccc23)n[nH]c1=S	14.1

Structure (SMILES)	AC35 [µM]
CCC(C)c1ccc(NC(=S)NCCn2cc(Br)cn2)cc1 (stereo unspecified)	10.5
O=C(CSc1ccc(-c2ccccn2)nn1)c1ccccc1	28
CCCCC(=O)NC(c1ccco1)c1cc(Cl)c2cccnc2c1O (stereo unspecified)	1.62
Cc1cc(Nc2ccccc2)nn1C(=O)c1ccccc1	43.1
Cc1ccsc1/C=C/c1ccc2cccc(O)c2n1	11.9
COc1ccc(N=N/C(=C\O)C(=O)c2cccs2)cc1	7.99
Cc1cc(Cl)ccc1C(=O)C1CCCN(C(=O)c2cncs2)C1 (stereo unspecified)	33.5
CC1(C)C2CCC1(C)C(OC(=O)c1ccc(O)cc1)C2 (stereo unspecified)	11.6
O=C(CC1CC2CCC1C2)Nc1nc(-c2ccccn2)cs1 (stereo unspecified)	3.99
Cc1ccc(NC2(c3nnnn3-c3c(C)cccc3C)CCCCC2)cc1	18
COc1ccc(/C=N/Nc2cc(C)nc(-n3nc(C)cc3C)n2)cc1	1.54
CCCC1CCC(c2ccc(/C(N)=N/O)cc2)CC1 (stereo unspecified)	24
Cc1cc(-c2ccccc2)n(-c2cc(N/N=C/c3ccccc3O)ncn2)n1	3.85
Oc1c(I)cc(Cl)c2cccnc12	1.67
C=C1C(=O)C23CCC4C(C)(C(=O)OC)CCCC4(C)C2CCC1(O)C3 (stereo unspecified)	1.72
CCc1ccc(OCc2n[nH]c(=S)n2Cc2ccccc2)cc1	34.4
CC(NC(=S)NC1CCC(C(C)(C)C)CC1)c1ccccc1 (stereo unspecified)	8.88
CC(C)C(=O)NC(c1ccco1)c1ccc2cccnc2c1O (stereo unspecified)	1.77
Cc1ccccc1C(=O)NNC(=S)NC(=O)c1ccc(Cl)cc1Cl	34.3
CC(C)=CCc1c(O)ccc(C(=O)Cc2ccccc2)c1O	11
